Experimental data as given in patent US20110288154A1, “RNA Interference Mediated Inhibition of Epithelial Sodium Channel (ENaC) Gene Expression Using Short Interfering Nucleic Acid (siNA)” (MERCK & CO., INC., priority 2008, published 2011).

Legend:
human ENaCα mRNA = assay: ENaCα mRNA knockdown and EC50 in human normal bronchial epithelial cells (NHBEs); type: cell-based; settings: 48 hrs post transfection, n = 3 donors; for EC50: nine point dose range 0.01-100 nM
Procedure: Human Bronchial Epithelial cells (NHBE cells) obtained from Lonza (Cat. No. CC-2540) were grown at 37 deg in the presence of 5% CO2 and cultured in BEBM basal medium (Lonza, Cat. No. CC-3171) on Biocoat Collagenl coated flasks (Becton Dickinson).
mRNA Knockdown and EC50 in NHBEs: Cells were plated in collagen 1 coated plates and cultured in appropriate culture media. The cells were cultured for 24 hours after plating at 37 deg in the presence of 5% CO2. siNAs were diluted in OptiMEM 1 to 1 uM and the delivery lipid GSK212357A to 25 ug/ml. For formulation of the siNAs equal volumes of the diluted siNA and delivery lipid were combined and incubated for 20 minutes at room temperature. Cells were meanwhile trypsinised and resuspended in antibiotic free BEBM media at 150,000 cells/ml. 20 ul of the formulated siNA and 80 ul of BEBM media was added per well of a 96 well plate (6 replicates/data point/siRNA concentration) so as to give a nine point dose range of the siRNAs (100 nM, 30 nM, 10 nM, 3 nM, 1 nM, 0.3 nM, 0.1 nM, 0.03 nM, 0.01 nM). The time of incubation with the GSK212357A-siNA complexes were 48 hours with one change of media at 24 hours.
RNA Isolation 96 well Plate: Total RNA was isolated from the cells in the 96-well plate format using the Automated SV96 Total RNA Isolation System (Promega) according to the manufacturer's instructions. The Biomek 2000 Laboratory Automation Workstation (Beckman Coulter) was used to apply the transfected cell lysates to a silica membrane. RNase-Free DNase I was then applied directly to the silica membrane to digest contaminating genomic DNA. The bound total RNA was further purified from contaminating salts, proteins and cellular impurities by simple washing steps. Finally, total RNA was eluted from the membrane by the addition of Nuclease-Free Water.
(§1) Quantitative RT-PCR (TaqMan): A series of probes and primers were used for the detection of mRNA transcripts of ENaCα, OAS1, IL8 and GAPDH (as control/normalisation) in the human cell lines. The assays were performed on an ABI 7900HT instrument according to the manufacturer's instructions. Primer Probe sets used GAPDH Forward 5′-[…]-3 (SEQ ID NO: 128), ‘Reverse 5’-GGGCCATCCACAGTCTTCT-3′ (SEQ ID NO: 129), Probe 5′ d FAM-[…]-TAMRA 3′ (SEQ ID NO: 130), ENaCa Forward 5′-[…]-3′ (SEQ ID NO: 131), Reverse 5′-[…]-3′ (SEQ ID NO: 132), Probe 5′ d FAM-[…]-TAMRA 3′ (SEQ ID NO: 133), OAS1 Forward 5′-[…]-3′ (SEQ ID NO: 134), Reverse 5′-[…]-3′ (SEQ ID NO: 135), Probe 5′ d FAM-[…]-TAMRA 3′ (SEQ ID NO: 136), IL8 Forward 5′-CTGGCCGTGGCTCTCTTG-3′ (SEQ ID NO: 137), Reverse 5′-[…]-3′ (SEQ ID NO: 138), Probe 5′ d FAM-[…]-TAMRA 3′ (SEQ ID NO: 139).
TaqMan: Critical threshold values (Ct) were converted to copy numbers corresponding to the particular gene analysed in each well of the 384 well plate. Six identical wells were prepared in each plate for a given treatment. […] Determination of the percentage coefficient of variation (CV) (% C.V.=[standard deviation/average]*100) allowed the omitting of wells whose value was an outlier (so that % C.V.<25). Relative abundance (aka relative expression) of a gene was determined by dividing the mean copy number of that gene with its GAPDH counterpart in that particular sample.
EC50 values were calculated from the data using sigma plot. All calculations of the efficacy and potency of the siNAs were done relative to the non-targeting control siNA.

ENaC-alpha mRNA = ENaC-alpha mRNA knockdown in recombinant HEK cells of the FLIPR assay; type: cell-based, human; settings: n = 6, mean of 3 independent experiments
Procedure: (§2) Recombinant HEK293 cell line (expressing ENaC beta & gamma) SCNN1B (P618AY620L)+SCNN1G (P624stop) #24. were grown at 37 deg in the presence of CO2 and were cultured in M1 medium M1+0.5 mg/ml geneticin and 0.2 mg/ml hygromycin.
(§3) Functional Effects on ENaC via FLIPR in Cells Over Expressing ENaCa: A reverse transfection methodology was used to transfect the HEK recombinant cell line. 5 ul of siRNA (diluted in Optimem to the appropriate concentration) was mixed with 5 ul of the Gemini lipid transfection reagent diluted in Optimem in 384 well non-coated FLIPR plate. Plates were incubated at room temperature for 20 minutes to allow complex formation. Cells were harvested, spun down, diluted to 3×10^5/ml and plated out at 40 ul/well (12K/well) in 384 well plate format containing the transfection complex. The plates were incubated overnight for 20 hours. The cells were then transduced with BacMam virus expressing ENaC alpha (BacMam viruses expressing SCNN1A, GRITS 29703, titre 0.356×10^8/ml). 30 ul of virus was added (1.7%) 20K/well, MOI was approximately 1. Cells were incubated for 24 hours. On day of the FLIPR assay, media was aspirated, leaving 10 ul volume. 20 ul of dye per well was loaded (FMP2 Blue dye, R8181, MDS. For each pot, 133 ml Tyrodes buffer was diluted to make 1× stock prior to assay). The plate was incubated for 0.5 hours at room temperature and 10 ul of the compound added on-line prior to FLIPR read (FLIPR settings: protocol Na MP.fcf, with Exposure length 0.4 sec and Filter #2). Compound plate: 1 ul volume, column 1, 2 and 3 are 16, 4 and 0 uM amiloride final (1/200 dilution) (IC80, IC50 and ctrl).
RNA isolation 384 well Plate: Extract mRNA using Qiagen Turbo Capture RNA preparation kit, following manufacturer's instructions.
as §1

ENaC = assay: FLIPR assay of sodium transport in recombinant HEK cells over expressing ENaC; type: cell-based, human; settings: FLIPR, n = 6, mean of 3 independent experiments
Procedure: as §2, §3

[1] = final siNA concentration 100 nM

Substance	Maximum mRNA knockdown NHBEs (human ENaCα mRNA) [%]	EC50 (human ENaCα mRNA) [nM]	% ENaC-alpha mRNA knockdown (ENaC-alpha mRNA; final siNA concentration 10 nM) [%]	% ENaC-alpha mRNA knockdown (ENaC-alpha mRNA; final siNA concentration 20 nM) [%]	% ENaC-alpha mRNA knockdown (ENaC-alpha mRNA; final siNA concentration 50 nM) [%]	% ENaC-alpha mRNA knockdown (ENaC-alpha mRNA; [1]) [%]	% Inhibition of Maximal Response (4 uM amiloride) (ENaC; final siNA concentration 10 nM) [%]	% Inhibition of Maximal Response (16 uM amiloride) (ENaC; final siNA concentration 10 nM) [%]	% Inhibition of Maximal Response (4 uM amiloride) (ENaC; final siNA concentration 20 nM) [%]	% Inhibition of Maximal Response (16 uM amiloride) (ENaC; final siNA concentration 20 nM) [%]	% Inhibition of Maximal Response (4 uM amiloride) (ENaC; final siNA concentration 50 nM) [%]	% Inhibition of Maximal Response (16 uM amiloride) (ENaC; final siNA concentration 50 nM) [%]	% Inhibition of Maximal Response (4 uM amiloride) (ENaC; [1]) [%]	% Inhibition of Maximal Response (16 uM amiloride) (ENaC; [1]) [%]
B GcuGuGccuAcAucuucuA TTB / UAGAAGAuGuAGGcAcAGcUU (sense GCUGUGCCUACAUCUUCUATT; antisense UAGAAGAUGUAGGCACAGCUU; siRNA; B caps on sense ends, letter-case modifications not given here, further chemistry not given here) [Site 1388]	79	4.2	–	–	–	–	–	–	–	–	–	–	–	–
B GuGuGGcuGuGccuAcAuc TTB / GAUGuAGGcAcAGccAcAcUU (sense GUGUGGCUGUGCCUACAUCTT; antisense GAUGUAGGCACAGCCACACUU; siRNA; B caps on sense ends, letter-case modifications not given here, further chemistry not given here) [Site 1383]	64	4.9	–	–	–	–	–	–	–	–	–	–	–	–
B uGuGcAAccAGAAcAAAuc TTB / GAUuuGuucuGGuuGcAcAUU (chain 1 UGUGCAACCAGAACAAAUCTT; chain 2 GAUUUGUUCUGGUUGCACAUU; siRNA; B caps on sense ends, letter-case modifications not given here, further chemistry not given here) [Site 782]	79	0.47	61.7	67.7	75.1	73.1	37.1	40.8	41.4	47.9	52.5	59.7	81.5	85.2
B uuAuGGAuGAuGGuGGcuu TTB / AAGccAccAucAuccAuAAUU (sense UUAUGGAUGAUGGUGGCUUTT; antisense AAGCCACCAUCAUCCAUAAUU; siRNA; B caps on sense ends, letter-case modifications not given here, further chemistry not given here) [Site 1181]	78	1.59	52.6	65.6	76.1	76.9	43.8	45.8	48.9	51.4	62.2	65.5	77.5	77.5
